Results taken from ChEMBL document CHEMBL3046609, “Herbicidal properties of the thaxtomin group of phytotoxins” (2001).
Calls of active or inactive are those of the source. The calls are words filed in the database; no cut-off is given here.

Columns and labels:
Helianthus annuus [1] = assay: Herbicidal activity against Helianthus annuus (sunflower) assessed as visual injury at 10 ug/seedling applied to meristem after 1 week relative to control; format: functional
Helianthus annuus [2] = assay: Herbicidal activity against Helianthus annuus (sunflower) assessed as visual injury at 100 ug/seedling applied to meristem after 1 week relative to control; format: functional
Avena fatua [3] = assay: Pre-emergence growth inhibition of Avena fatua assessed as visual injury at 0.5 kg/ha after 16 days relative to control; format: functional; parameters: scale not given: the % may be the effect or the level left
Ipomoea hederacea [4] = assay: Herbicidal activity against Ipomoea hederacea (ivy-leaved morning glory) assessed as visual injury at 10 ug/seedling applied to cotyledon after 1 week relative to control; format: functional
Ipomoea hederacea [5] = assay: Herbicidal activity against Ipomoea hederacea (ivy-leaved morning glory) assessed as visual injury at 1 ug/seedling applied to meristem after 1 week relative to control; format: functional
Ipomoea hederacea [6] = assay: Herbicidal activity against Ipomoea hederacea (ivy-leaved morning glory) assessed as visual injury at 10 ug/seedling applied to meristem after 1 week relative to control; format: functional
Helianthus annuus [7] = assay: Herbicidal activity against Helianthus annuus (sunflower) assessed as visual injury at 10 ug/seedling applied to cotyledon after 1 week relative to control; format: functional
Helianthus annuus [8] = assay: Herbicidal activity against Helianthus annuus (sunflower) assessed as visual injury at 100 ug/seedling applied to cotyledon after 1 week relative to control; format: functional
Helianthus annuus [9] = assay: Herbicidal activity against Helianthus annuus (sunflower) assessed as visual injury at 1 ug/seedling applied to meristem after 1 week relative to control; format: functional
Abutilon theophrasti [10] = assay: Herbicidal activity against Abutilon theophrasti (velvetleaf) assessed as visual injury at 1 ug/seedling applied to leaf after 1 week relative to control; format: functional
Abutilon theophrasti [11] = assay: Herbicidal activity against Abutilon theophrasti (velvetleaf) assessed as visual injury at 1 ug/seedling applied to meristem after 1 week relative to control; format: functional
Avena fatua [12] = assay: Pre-emergence growth inhibition of Avena fatua assessed as meristematic at 0.5 to 4 kg/ha after 16 days; format: functional, organism-based
Helianthus annuus [13] = assay: Pre-emergence growth inhibition of Helianthus annuus (sunflower) assessed as meristematic at 0.5 to 4 kg/ha after 16 days; format: functional, organism-based
Ipomoea hederacea [14] = assay: Pre-emergence herbicidal activity against Ipomoea hederacea (ivy-leaved morning glory) assessed as stunting at 0.5 to 4 kg/ha after 16 days; format: functional, organism-based
Helianthus annuus [15] = assay: Pre-emergence growth inhibition of Helianthus annuus (sunflower) assessed as stunting at 0.5 to 4 kg/ha after 16 days; format: functional, organism-based
Avena fatua [16] = assay: Pre-emergence growth inhibition of Avena fatua after 16 days; format: functional
Helianthus annuus [17] = assay: Pre-emergence growth inhibition of Helianthus annuus (sunflower) after 16 days; format: functional
Echinochloa crus-galli [18] = assay: Post-emergence herbicidal activity against Echinochloa crus-galli (barnyard grass) assessed as wilting at 0.5 to 4 kg/ha after 9 days; format: functional, organism-based
Avena fatua [19] = assay: Post-emergence growth inhibition of Avena fatua assessed as meristematic at 0.5 to 4 kg/ha after 9 days; format: functional, organism-based
Helianthus annuus [20] = assay: Post-emergence growth inhibition of Helianthus annuus (sunflower) assessed as wilting at 0.5 to 4 kg/ha after 9 days; format: functional, organism-based
Echinochloa crus-galli [21] = assay: Post-emergence herbicidal activity against Echinochloa crus-galli (barnyard grass) assessed as meristematic at 0.5 to 4 kg/ha after 9 days; format: functional, organism-based
Avena fatua [22] = assay: Post-emergence growth inhibition of Avena fatua assessed as stunting at 0.5 to 4 kg/ha after 9 days; format: functional, organism-based
Helianthus annuus [23] = assay: Post-emergence growth inhibition of Helianthus annuus (sunflower) assessed as meristematic at 0.5 to 4 kg/ha after 9 days; format: functional, organism-based
Ipomoea hederacea [24] = assay: Post-emergence herbicidal activity against Ipomoea hederacea (ivy-leaved morning glory) assessed as stunting at 0.5 to 4 kg/ha after 9 days; format: functional, organism-based
Echinochloa crus-galli [25] = assay: Pre-emergence herbicidal activity against Echinochloa crus-galli (barnyard grass) assessed as visual injury at 4 kg/ha after 16 days relative to control; format: functional
Arabidopsis thaliana = assay: Growth inhibition of Arabidopsis thaliana var. Columbia after 9 days by agarose-based test; format: functional
Lemna minor = assay: Herbicidal activity against Lemna minor (common duckweed) assessed as visual injury at 0.008 ppm after 9 days relative to control; format: functional
[26] = test system: Agrostis stolonifera var. palustris; assay: Herbicidal activity against Agrostis stolonifera var. palustris assessed as visual injury at 1 ppm after 9 days relative to control; format: functional
[27] = test system: Agrostis stolonifera var. palustris; assay: Herbicidal activity against Agrostis stolonifera var. palustris assessed as visual injury at 25 ppm after 9 days relative to control; format: functional
[28] = test system: Agrostis stolonifera var. palustris; assay: Herbicidal activity against Agrostis stolonifera var. palustris assessed as visual injury at 0.04 ppm after 9 days relative to control; format: functional
Echinochloa crus-galli [29] = assay: Pre-emergence herbicidal activity against Echinochloa crus-galli (barnyard grass) assessed as visual injury at 0.5 kg/ha after 16 days relative to control; format: functional
Echinochloa crus-galli [30] = assay: Pre-emergence herbicidal activity against Echinochloa crus-galli (barnyard grass) assessed as visual injury at 2 kg/ha after 16 days relative to control; format: functional
Ipomoea hederacea [31] = assay: Pre-emergence herbicidal activity against Ipomoea hederacea (ivy-leaved morning glory) assessed as visual injury at 0.5 kg/ha after 16 days relative to control; format: functional
Helianthus annuus [32] = assay: Pre-emergence growth inhibition of Helianthus annuus (sunflower) assessed as visual injury at 0.5 kg/ha after 16 days relative to control; format: functional; parameters: scale not given: the % may be the effect or the level left
Helianthus annuus [33] = assay: Pre-emergence growth inhibition of Helianthus annuus (sunflower) assessed as visual injury at 2 kg/ha after 16 days relative to control; format: functional; parameters: scale not given: the % may be the effect or the level left
Helianthus annuus [34] = assay: Pre-emergence growth inhibition of Helianthus annuus (sunflower) assessed as visual injury at 4 kg/ha after 16 days relative to control; format: functional; parameters: scale not given: the % may be the effect or the level left
Avena fatua [35] = assay: Post-emergence growth inhibition of Avena fatua assessed as visual injury at 0.5 kg/ha after 9 days relative to control; format: functional; parameters: scale not given: the % may be the effect or the level left
Avena fatua [36] = assay: Post-emergence growth inhibition of Avena fatua assessed as visual injury at 4 kg/ha after 9 days relative to control; format: functional; parameters: scale not given: the % may be the effect or the level left
Echinochloa crus-galli [37] = assay: Post-emergence herbicidal activity against Echinochloa crus-galli (barnyard grass) assessed as visual injury at 0.5 kg/ha after 9 days relative to control; format: functional
Echinochloa crus-galli [38] = assay: Post-emergence herbicidal activity against Echinochloa crus-galli (barnyard grass) assessed as visual injury at 2 kg/ha after 9 days relative to control; format: functional
Ipomoea hederacea [39] = assay: Post-emergence herbicidal activity against Ipomoea hederacea (ivy-leaved morning glory) assessed as visual injury at 0.5 kg/ha after 9 days relative to control; format: functional
Ipomoea hederacea [40] = assay: Post-emergence herbicidal activity against Ipomoea hederacea (ivy-leaved morning glory) assessed as visual injury at 4 kg/ha after 9 days relative to control; format: functional
Helianthus annuus [41] = assay: Post-emergence growth inhibition of Helianthus annuus (sunflower) assessed as visual injury at 1 kg/ha after 9 days relative to control; format: functional; parameters: scale not given: the % may be the effect or the level left
Helianthus annuus [42] = assay: Post-emergence growth inhibition of Helianthus annuus (sunflower) assessed as visual injury at 4 kg/ha after 9 days relative to control; format: functional; parameters: scale not given: the % may be the effect or the level left
[43] = test system: Agrostis stolonifera var. palustris; assay: Herbicidal activity against Agrostis stolonifera var. palustris assessed as root tip puffing after 9 days by agarose-based test; format: functional, organism-based
Avena fatua [44] = assay: Pre-emergence growth inhibition of Avena fatua assessed as visual injury at 1 kg/ha after 16 days relative to control; format: functional; parameters: scale not given: the % may be the effect or the level left
Echinochloa crus-galli [45] = assay: Pre-emergence herbicidal activity against Echinochloa crus-galli (barnyard grass) assessed as visual injury at 1 kg/ha after 16 days relative to control; format: functional

**Q.** How did the Activity (Helianthus annuus [1]) turn out when `CN1C(=O)[C@](O)(Cc2cccc(O)c2)N(C)C(=O)[C@@H]1Cc1c[nH]c2cccc([N+](=O)[O-])c12` [THAXTOMIN A] was run?
**A.** Its Activity is 90%.

**Q.** What about the Activity (Helianthus annuus [2]) of the same compound?
**A.** The Activity was 90%.

**Q.** And the Activity (Avena fatua [3])?
**A.** Its Activity is 100%.

**Q.** What about the Activity (Ipomoea hederacea [4]) of the same compound?
**A.** Its Activity is 0%.

**Q.** What about the Activity (Ipomoea hederacea [5]) of the same compound?
**A.** The Activity was 75%.

**Q.** What about the Activity (Ipomoea hederacea [6]) of the same compound?
**A.** The Activity was 80%.

**Q.** And the Activity (Helianthus annuus [7])?
**A.** Its Activity is 0%.

**Q.** And the Activity (Helianthus annuus [8])?
**A.** The Activity was 0%.

**Q.** And the Activity (Helianthus annuus [9])?
**A.** The Activity was 50%.

**Q.** And the Activity (Abutilon theophrasti [10])?
**A.** The Activity was 0%.

**Q.** And the Activity (Abutilon theophrasti [11])?
**A.** Its Activity is 20%.

**Q.** What about the Activity (Avena fatua [12]) of the same compound?
**A.** The Activity was “Active”.

**Q.** And the Activity (Helianthus annuus [13])?
**A.** Its Activity is “Active”.

**Q.** And the Activity (Ipomoea hederacea [14])?
**A.** Its Activity is “Active”.

**Q.** And the Activity (Helianthus annuus [15])?
**A.** Its Activity is “Active”.

**Q.** What about the GR50 (Avena fatua [16]) of the same compound?
**A.** The GR50 was under 500 g/ha.

**Q.** What about the GR50 (Helianthus annuus [17]) of the same compound?
**A.** The GR50 was under 500 g/ha.

**Q.** What about the Activity (Echinochloa crus-galli [18]) of the same compound?
**A.** The Activity was “Active”.

**Q.** What about the Activity (Avena fatua [19]) of the same compound?
**A.** The Activity was “Active”.

**Q.** And the Activity (Helianthus annuus [20])?
**A.** Its Activity is “Active”.

**Q.** And the Activity (Echinochloa crus-galli [21])?
**A.** The Activity was “Active”.

**Q.** What about the Activity (Avena fatua [22]) of the same compound?
**A.** The Activity was “Active”.

**Q.** What about the Activity (Helianthus annuus [23]) of the same compound?
**A.** The Activity was “Active”.

**Q.** What about the Activity (Ipomoea hederacea [24]) of the same compound?
**A.** Its Activity is “Active”.

**Q.** And the Activity (Echinochloa crus-galli [25])?
**A.** Its Activity is 100%.

**Q.** And the I50 (Arabidopsis thaliana)?
**A.** Its I50 is 10 ppb.

**Q.** What about the Activity (Lemna minor) of the same compound?
**A.** Its Activity is 30%.

**Q.** And the Activity [26]?
**A.** The Activity was 100%.

**Q.** And the Activity [27]?
**A.** Its Activity is 100%.

**Q.** And the Activity [28]?
**A.** The Activity was 80%.

**Q.** What about the Activity (Echinochloa crus-galli [29]) of the same compound?
**A.** Its Activity is 98%.

**Q.** And the Activity (Echinochloa crus-galli [30])?
**A.** The Activity was 100%.

**Q.** What about the Activity (Ipomoea hederacea [31]) of the same compound?
**A.** The Activity was 100%.

**Q.** What about the Activity (Helianthus annuus [32]) of the same compound?
**A.** The Activity was 70%.

**Q.** And the Activity (Helianthus annuus [33])?
**A.** Its Activity is 100%.

**Q.** And the Activity (Helianthus annuus [34])?
**A.** Its Activity is 100%.

**Q.** And the Activity (Avena fatua [35])?
**A.** Its Activity is 0%.

**Q.** What about the Activity (Avena fatua [36]) of the same compound?
**A.** Its Activity is 80%.

**Q.** What about the Activity (Echinochloa crus-galli [37]) of the same compound?
**A.** The Activity was 10%.

**Q.** What about the Activity (Echinochloa crus-galli [38]) of the same compound?
**A.** Its Activity is 40%.

**Q.** And the Activity (Ipomoea hederacea [39])?
**A.** Its Activity is 70%.

**Q.** And the Activity (Ipomoea hederacea [40])?
**A.** The Activity was 85%.

**Q.** What about the Activity (Helianthus annuus [41]) of the same compound?
**A.** Its Activity is 85%.

**Q.** What about the Activity (Helianthus annuus [42]) of the same compound?
**A.** Its Activity is 85%.

**Q.** And the Activity [43]?
**A.** Its Activity is “Active”.

**Q.** What about the Activity (Avena fatua [44]) of the same compound?
**A.** Its Activity is 100%.

**Q.** And the Activity (Echinochloa crus-galli [45])?
**A.** The Activity was 98%.
